In patent US20260138961A1, “MODULATORS OF MITOCHONDRIAL DNA REPLICATION” (Pretzel Therapeutics, Inc., priority 2022, published 2026):

Each compound was assayed against T1, POLγA:R309C (Homo sapiens, UniProt P54098, R309C) (assay: DNA polymerization assay, POLγA:R309C mutant). Conditions: stimulation of polymerase activity, primed M13mp18 ssDNA, 37° C. 2 hours.
T1 sequence (P54098 1-1239 R309C): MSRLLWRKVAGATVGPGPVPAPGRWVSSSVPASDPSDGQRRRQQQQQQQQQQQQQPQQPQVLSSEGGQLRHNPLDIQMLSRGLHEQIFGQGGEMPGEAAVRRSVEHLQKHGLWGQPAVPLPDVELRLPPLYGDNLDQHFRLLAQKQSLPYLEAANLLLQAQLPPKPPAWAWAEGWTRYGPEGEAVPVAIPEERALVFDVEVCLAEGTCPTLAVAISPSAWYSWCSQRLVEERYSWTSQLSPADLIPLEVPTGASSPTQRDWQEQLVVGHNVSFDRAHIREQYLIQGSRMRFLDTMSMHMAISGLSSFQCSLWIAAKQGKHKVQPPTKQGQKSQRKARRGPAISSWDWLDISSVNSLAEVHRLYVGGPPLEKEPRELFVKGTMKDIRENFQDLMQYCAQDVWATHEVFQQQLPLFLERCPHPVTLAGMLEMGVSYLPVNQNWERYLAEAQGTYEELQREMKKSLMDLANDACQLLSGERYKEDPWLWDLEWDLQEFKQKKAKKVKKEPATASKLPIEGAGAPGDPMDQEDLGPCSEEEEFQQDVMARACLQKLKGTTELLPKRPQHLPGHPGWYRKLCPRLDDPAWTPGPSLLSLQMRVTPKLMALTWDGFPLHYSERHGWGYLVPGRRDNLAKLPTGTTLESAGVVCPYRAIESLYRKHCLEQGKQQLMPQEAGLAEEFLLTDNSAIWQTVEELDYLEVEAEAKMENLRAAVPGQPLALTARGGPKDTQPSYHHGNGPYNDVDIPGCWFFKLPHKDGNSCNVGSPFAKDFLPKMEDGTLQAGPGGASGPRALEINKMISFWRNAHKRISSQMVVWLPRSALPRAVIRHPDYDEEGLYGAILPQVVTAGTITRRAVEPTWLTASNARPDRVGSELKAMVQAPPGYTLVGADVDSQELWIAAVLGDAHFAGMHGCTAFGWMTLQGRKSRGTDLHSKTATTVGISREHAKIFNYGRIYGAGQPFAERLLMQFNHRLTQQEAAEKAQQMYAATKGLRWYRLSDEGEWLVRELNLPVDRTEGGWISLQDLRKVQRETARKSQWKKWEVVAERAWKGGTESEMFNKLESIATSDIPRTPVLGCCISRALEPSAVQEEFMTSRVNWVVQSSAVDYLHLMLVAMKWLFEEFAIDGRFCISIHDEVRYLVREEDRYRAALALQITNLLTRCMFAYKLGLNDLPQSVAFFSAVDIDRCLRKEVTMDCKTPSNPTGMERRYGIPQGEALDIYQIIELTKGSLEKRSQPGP
T1 sequence (Q9UHN1 1-485 partner): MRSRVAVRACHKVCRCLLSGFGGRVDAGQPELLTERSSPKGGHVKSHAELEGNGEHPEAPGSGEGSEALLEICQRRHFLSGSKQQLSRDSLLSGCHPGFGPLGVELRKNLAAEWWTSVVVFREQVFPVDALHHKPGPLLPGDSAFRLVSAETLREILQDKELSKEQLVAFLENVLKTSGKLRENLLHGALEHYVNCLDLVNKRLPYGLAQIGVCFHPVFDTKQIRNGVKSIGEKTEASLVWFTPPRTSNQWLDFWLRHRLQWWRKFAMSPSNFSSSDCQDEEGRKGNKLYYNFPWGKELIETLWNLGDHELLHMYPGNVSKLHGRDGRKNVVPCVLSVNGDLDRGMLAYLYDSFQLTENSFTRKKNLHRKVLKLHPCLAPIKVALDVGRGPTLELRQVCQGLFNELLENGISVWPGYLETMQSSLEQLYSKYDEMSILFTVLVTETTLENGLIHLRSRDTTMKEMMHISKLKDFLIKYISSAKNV
Assay type: biochemical
Description: DNA Polymerization Assay to Monitor Effects on Human Wildtype POLγ and Four Disease-Causing Mutant Variants of Human POLγ.
The ability of small molecules to stimulate the polymerase activity of POLγ was analyzed in a quantitative fluorescence SYBR Green I assay with fluorescence intensity (FI) readout.
In the presence of dNTPs, wild type human POLγ and mutant derivatives thereof were incubated with single-stranded, circular M13mp18 ssDNA hybridized to a short DNA oligonucleotide that functions as a primer for initiation of DNA synthesis. POLγ and mutant derivatives thereof will extend the primer and use the M13mp18 molecule as a template to synthesize long stretches of double-stranded DNA. SYBR Green I, which is a double-stranded DNA-binding dye, was used to quantify formation of double-stranded DNA in the reaction. When bound to double-stranded DNA, SYBR Green I fluorescence increases by up to 100-fold.
The assay was performed in the 384-well plate format. Upon addition of compounds, changes in double-stranded DNA synthesis activity can be monitored by following effects on fluorescent intensity.
The reactions also contained the accessory POLγB subunit, and the human mitochondrial single-stranded DNA binding protein (mtSSB).
The DNA template mixture used in the assay contained 0.5 nM primed M13 mp18 ssDNA, 400 nM mtSSB, 0.1 mM Tris-HCl (pH 8.0), 0.1 mM dNTP, 10 mM MgCl2, 0.1 mg/mL BSA, 1 mM TCEP solution, and 0.02% Triton X-100. The DNA template mixture for the wild type protein contained either 100 μM dNTP, 1 μM dNTP, or 0.1 μM dNTP, designated in Table 2 as 100 μM, 1 μM, and 0.1 μM, respectfully.
Microplates with compounds (0.1 μL in each well) to be tested in the assay were prepared from 10 mM compound stocks in 100% DMSO, and equal amounts of DMSO without any compound were added to positive and negative control wells.
The protein mixture was dispensed (5 μL into each well) into compound plates and incubated at 37° C. for 15 minutes. After incubation, 5 μL of the DNA template mixture was dispensed into each well. The plates were then incubated at 37° C. for 2 hours.
During incubation, a combined stop buffer and detection reagent solution was prepared. The buffer contained 25 mM EDTA (pH 8.0), 0.02% Triton X-100, and SYBR Green I [Invitrogen] diluted 10,000× (for fluorescent readout). EDTA will stop the enzymatic reaction by chelating magnesium ions.
With `Cc1csc(-c2cccc(NS(=O)(=O)c3cc(C)c(Cl)cc3C)c2)n1` [Example 20, 4-chloro-2,5-dimethyl-N-(3-(4-methylthiazol-2-yl)phenyl)benzenesulfonamide] the AC50 was 1000 nM.
With `Cc1cnc(-c2cccc(NS(=O)(=O)c3cc(C)c(Cl)cc3C)c2)s1` [Example 21, 4-chloro-2,5-dimethyl-N-(3-(5-methylthiazol-2-yl)phenyl)benzenesulfonamide] the AC50 was 1000 nM.
With `Cc1ccc(C)c(S(=O)(=O)Nc2cccc(-c3nccs3)c2)c1` [Example 60] the AC50 was 900 nM.
Compound `Cc1cc(S(=O)(=O)Nc2cccc(-c3cc(C4CC4)[nH]n3)c2)c(C)cc1Cl` [Example 64, 4-chloro-N-(3-(5-cyclopropyl-1H-pyrazol-3-yl)phenyl)-2,5-dimethylbenzenesulfonamide] has an AC50 of 1000 nM.
Compound `CC[C@@H]1CCCN1C(=O)c1cccc(NS(=O)(=O)c2cc(C)c(Cl)cc2C)c1` [Example 65, (R)-4-chloro-N-(3-(2-ethylpyrrolidine-1-carbonyl)phenyl)-2,5-dimethylbenzenesulfonamide] has an AC50 of 5000 nM.
`Cc1cc(-c2cccc(NS(=O)(=O)c3cc(C)c(Cl)cc3C)c2)n[nH]1` [Example 66, 4-chloro-2,5-dimethyl-N-(3-(5-methyl-1H-pyrazol-3-yl)phenyl)benzenesulfonamide] was tested, and the AC50 was 12000 nM.
`Cc1cc(S(=O)(=O)Nc2cccc(-c3cc[nH]n3)c2)c(C)cc1Cl` [Example 68, N-(3-(1H-pyrazol-3-yl)phenyl)-4-chloro-2,5-dimethylbenzenesulfonamide] gave an AC50 of 7000 nM.
With `Cc1cc(S(=O)(=O)Nc2ccc3ccn(C(C)C)c3c2)c(C)cc1Cl` [Example 69, 4-chloro-N-(1-isopropyl-1H-indol-6-yl)-2,5-dimethylbenzenesulfonamide] the AC50 was 1000 nM.
`Cc1nc2ccc(NS(=O)(=O)c3cc(C)c(Cl)cc3C)cc2o1` [Example 70, 4-chloro-2,5-dimethyl-N-(2-methylbenzo[d]oxazol-6-yl)benzenesulfonamide] gave an AC50 of 51000 nM.
With `Cc1cc2cc(NS(=O)(=O)c3cc(C)c(Cl)cc3C)ccc2[nH]1` [Example 184, 4-chloro-2,5-dimethyl-N-(2-methyl-1H-indol-5-yl)benzenesulfonamide] the AC50 was 8000 nM.
